# According to patent US20120115806A1 (SANOFI, priority 2009, published 2012):
# How the values were obtained:
# [1] = system: patients with metastatic breast cancer previously treated with anthracyclines and taxanes; conditions: cabazitaxel (D1) in combination with capecitabine (twice a day, D1-14)
# Text: The main inclusion criteria were an age of 18 or older, a histologically proven metastatic or locally recurrent breast cancer that was inoperable, an Eastern Cooperative Oncology Group performance status (ECOG PS) of 0 to 2, prior exposure to taxanes and to anthracyclines, and adequate hematological, renal and hepatic function.
# The main exclusion criteria were a simultaneous cancer, more than one chemotherapy treatment for metastatic cancer, prior exposure to capecitabine, or uncontrolled significant comorbid conditions.
# Thirty-three patients with metastatic breast cancer were included in the study, all previously treated with anthracyclines and taxanes: 15 patients for part 1 and 18 for part 2.
# The dose-limiting toxicities (DLTs), i.e. the list of events to be monitored, which make it possible to guide the dose escalation, were first of all predefined in the protocol in accordance with the NCI-CTCAE classification scale, version 3.
# The increase in doses was studied in groups of three patients as long as no DLT was observed.
# [2] = system: patients with metastatic breast cancer; assay: Phase I/II study: tolerance and treatment characteristics
# Experimental: Part 2: the antitumor activity and the characterization of the tolerance profile were determined at the recommended dose.
# The capecitabine is administered orally twice a day, in the morning and evening, from day D1 to day D14 (from the 1st to the 14th day of the cycle).
# The doses could be reduced and the treatment cycle duration could be extended in the case of a severe adverse event (AE). The treatment was continued until disease progression, the presence of an unacceptable AE or the withdrawal of patient consent.
# A physical examination, complete differential leukocyte and blood counts, and blood chemistry analyses were carried out before the recruitment of the patients and regularly during treatment. Tumor evaluation by radiology was carried out at recruitment of the patients and every 6 weeks. The responses were confirmed by 2 evaluations at least 4 weeks apart. Supplementary data were collected every 6 weeks until the date the study was stopped.
# [3] = Phase I/II study: pharmacokinetics and drug interaction study; conditions: patients, part 1; parent and metabolite
# [4] = system: taxane-resistant metastatic breast cancer; conditions: 1-h i.v. infusion every 3 weeks; Ann. Oncol. 2008, 19(9), 1547-1552; cited from earlier work
# [5] = system: Thymidine Phosphorylase (TP) expression in MCF-7 breast carcinoma cells; conditions: especially with MCF-7 breast carcinoma cells; abstract, French Pharmacology Society Conference 2008; cited from earlier work
# [6] = DL2: 20 mg/m^2 cabazitaxel + 2 × 1000 mg/m^2/day capecitabine for 14 days, 21 patients
# [7] = Total, all dose levels, 33 patients
Compound,maximal administered dose (MAD) [1] [mg/m^2],recommended dose (RD) ([1]; highest dose at which less than 33% of patients exhibited a DLT) [mg/m^2],"Number of patients with dose reduction [2, 6]","Number of patients with dose reduction [2, 7]",pharmacokinetics affected by coadministration of the other agent [3],efficacy in taxane-resistant metastatic breast cancer [4],induction of TP expression [5]
"CCCCCOC(=O)Nc1nc(=O)n([C@@H]2O[C@H](C)[C@@H](O)[C@H]2O)cc1F [capecitabine, 5′-deoxy-5-fluoro-N4-(pentyloxycarbonyl)cytidine N-[1-(5-deoxy-beta-D-ribofuranosyl)-5-fluoro-2-oxo-1,2-dihydropyrimidin-4-yl]carbamic acid pentyl ester]",1000,1000,3,7,vice versa,–,–
"4α-acetoxy-2α-benzoyloxy-5β,20-epoxy-1β-hydroxy-β,10β-dimethoxy-9-oxotax-11-en-13α-yl (2R,3S)-3-tert-butoxycarbonylamino-2-hydroxy-3-phenylpropionate [cabazitaxel]",–,–,4,10,do not appear to be affected,can be effective,induces TP expression
